How the values were obtained:
[1] = tested on: Jurkat cells; assay: Cellular uptake assay by flow cytometry; assay type: cell-based; details: for Mean fluorescence intensity: Jurkat cells
Description: All apparatuses were sterilized by autoclave sterilizer, and the experimental surfaces were wiped with 70% ethanol. All operations were performed in a laminar flow hood. The number of cells was determined by a hemacytometer. There were 9 squares with 1.0 mm^2 area and 0.1 mm depth in the hemacytometer. The number of cells in the four corner squares was counted and averaged. The average was multiplied by 10^4 to obtain the number of cells in a 1 mL suspension. The cellular uptake experiments were performed using 8×10^5 cells. […] The cells were then washed with PBS (2 g/L KCl, 2 g/L KH2PO4, 80 g/L NaCl, 11.5 g/L Na2PO4) (2×400 μL) to remove the fetal bovine serum which might interfere with the proteolytic activity of trypsin. The cells were then incubated with 0.05% trypsin/EDTA in PBS for 5 minutes to remove the peptides which adhered to the cell surface rather than entry to the cell. The cells were washed with PBS (2×400 μL). The cells were then resuspended in 500λ PBS and transferred into the flow tube. The cells were terminated by adding Triton-X 100 to give the dead control group. Propidium iodide (PI) was added to all samples to stain the dead cells but should not stain the live cells. Fluorescence analysis for the Jurkat cells was performed with a flow cytometer (FACScan, Becton Dickinson Bioscience). The voltage of the photomultiplier tube for forward scatter, side scatter and propidium iodide was set to 270, 470, and 350, respectively. Live cells containing appropriate forward scatter and side scatter values were selected and gated as the P1 region for normal and live cells in the live control group. The minimum propidium iodide fluorescence intensity for the dead cells treated with propidium iodide in the P1 region was set as the threshold value for dead cells. In other words, cells with propidium iodide fluorescence below the threshold value would be deemed live cells. The fluorescence of 6-carboxyfluorescein was considered when the cell morphology was in the P1 region and the propidium iodide fluorescence intensity was lower than the threshold value. The 6-carboxyfluorescein fluorescence intensity was acquired for 10,000 events at room temperature. The data presented are the mean fluorescence intensity for the 10,000 cells. Each experiment was independently repeated at least three times.
Cellular uptake experiments were performed on Jurkat cells, because these cells belonged to a CD4+ helper T cell cancer cell line which was the target of HIV. Jurkat cells were incubated separately with various concentration (7, 30, 60, 120 μM) of Flu-XaaTat for 15 minutes at 37° C. in the presence of fetal bovine serum, and then treated with trypsin to remove cell-surface bound peptide.

[2] = tested on: Jurkat cells; assay: Fluorescence microscope of live Jurkat cells; assay type: cell-based; details: 37° C.; for Cellular uptake seen in fluorescence microscopy images: 7 μM peptide, 15 minutes, fetal bovine serum, trypsin 5 minutes, FIG. 1; for Cellular uptake seen in fluorescence microscope images: 30 μM peptide, 5% CO2, 15 minutes, trypsinized 10 minutes, FIG. 7
Description: […] After incubation, the suspension was centrifuged at 2200 rpm. The cells were washed with phosphate buffered saline (137 mM NaCl, 2.7 mM KCl, 10 mM sodium phosphate dibasic, 2 mM potassium phosphate monobasic, pH 7.4) twice to remove extracellular peptide. […] Finally, cells were resuspended in 500 μL PBS containing 1 μg/mL propidium iodide. The cells were then examined by a fluorescence microscope (Olympus IX71) (492/517 nm; excitation/observation).

[3] = tested on: Jurkat cells; assay: MTT assay for determining cell survival; assay type: cell-based; details: 7 μM and 30 μM peptide, 4 hours, 37° C., FIG. 4
Description: The cells were grown to appropriate cell density (roughly 2×10^6 cells/mL) and transferred into new media one day before performing the experiment. For each assay, 8×10^5 cells as determined by a hemocytometer were added into an eppendorf. The cells were centrifuged at 2200 rpm for 5 minutes. The supernatant was removed by suction. Then 200 μL of 7 μM or 30 μM XaaTat peptide was added. The cells were incubated for 4 hours at 37° C. and then centrifuged at 2200 rpm for 5 minutes. The cells were washed with RPMI medium twice, and then 200 μL of 0.5 mg/mL MTT in serum free RPMI buffer was added and incubated at 37° C. for 3.5 hours. The cells were then centrifuged at 4000 rpm for 5 minutes. The supernatant was then transferred to two wells (100 μL each) of a 96-well plate. Then 400 μL DMSO was added to the cells in the assaying eppendorf. The eppendorf was then vortexed for 5 minutes to solubilize the MTT purple crystals, and centrifuged at 2200 rpm for 5 minutes. Then the supernatant was transferred to 4 wells (100 μL each) of the 96-well plate for analysis. The absorbance at 570 was determined for each well using a microplate reader with the absorbance at 655 nm used for background correction. A standard curve was generated using different number of cells (8×10^5, 4×10^5 and 2×10^5). The absorbance for each sample for each peptide at each concentration was then correlated to the number of live cells based on the standard curve.

[4] = target: HIV TAR RNA; assay: Fluorescence anisotropy binding of Tat peptides to fluorescein-labeled TAR RNA; details: Table 2; read-out: KD, binding affinity of Tat-peptide and TAR RNA by fluorescence anisotropy assay
Description: The binding affinity of XaaTat peptides (Xaa=Agh, Arg and Agb) for TAR RNA was measured by fluorescence anisotropy using a Varian Cary Eclipse fluorescence spectrophotometer. The anisotropy (r) was calculated using the following equation: […]
where Ivv, Ivh, Ihh, Ihv are the fluorescence intensities with the excitation polarizer and emission polarizer is oriented perpendicular (Ivh and Ihv) and parallel (Ivv and Ihh) to the direction of the polarized excitation. The fluorescein-labeled TAR RNA (F-TAR-RNA) was excited at 490 nm and the polarized emissions were monitored at 512 nm. The slits were set at 10 nm for both excitation and emission. The integration time was 20 seconds. All data were measured in a Sub-Micro (Starna Cell, Inc.) with a starting volume of 160 μL. Each addition (1 μL) of XaaTat was equilibrated for two minutes before the fluorescence signal was recorded. All experiments were performed at room temperature in TKT buffer (TKT: 50 mM Tris-HCl, pH 7.4, 20 mM KCl and 0.02% Tween20). The initial concentration of F-TAR-RNA was 25 nM. The TKT solution and peptide stock solution were both equilibrated at room temperature more than 20 minutes before the experiment. The experiment was repeated three times independently. For every single point, three measurements were performed and the average value was used for deriving the apparent (apparent KD). The apparent for the peptide-RNA complex was derived by fitting the data assuming a 1:1 peptide-RNA stoichiometry. The fitting was performed using Kaleidagraph 3.52. (Synergy Software, CA).

[5] = target: HIV TAR RNA; assay: Gel shift assay (EMSA) with fluorescein-labeled TAR RNA in the presence of poly(dI-dC); assay type: binding
Description: The fluorescein-labeled TAR RNA (F-TAR-RNA) was purchased from Sigma. F-TAR-RNA was dissolved in diethyl pyrocarbonate treated H2O to give a 50 μM solution. Binding assays were performed at room temperature. Peptide and RNA were incubated in pH 7.4 buffer (10 μL) containing Tris-HCl (50 mM), KCl (50 mM), poly-dIdC (10 μg/mL), 2% glycerol, and Triton X-100 (0.05%). The F-TAR-RNA concentration was 100 nM. The samples were analyzed by loading into 12% native polyacrylamide gels in […] and electrophoresis was performed with 140 V at room temperature. Dried gels were scanned by the Typhoon TRIO+ Variable Mode Imager. Bands corresponding to the free and bound RNA were quantified using ImageQuant software. The apparent dissociation constants were globally derived from the quantified data assuming a 1:1 binding stoichiometry.

[6] = in the presence of poly(dI-dC) at 25° C., Table 3, read-out: KD, dissociation constant of Tat-peptide and TAR RNA by gel shift assay

Compound	Mean fluorescence intensity ([1]; 30 μM peptide) [a.u.]	Mean fluorescence intensity ([1]; 60 μM peptide) [a.u.]	Mean fluorescence intensity ([1]; 90 μM peptide) [a.u.]	Mean fluorescence intensity ([1]; 120 μM peptide) [a.u.]	Cellular uptake seen in fluorescence microscope images [2]	Kd [4] [nM]	Kd [5, 6] [nM]	other results
6-carboxyfluorescein-βAla-Tyr-Gly-Agh-Lys-Lys-Agh-Agh-Gln-Agh-Agh-Agh-NH2 [Flu-AghTat]	–	–	–	–	–	–	–	Cellular uptake compared to Flu-ArgTat ([1]; concentrations higher than 7 μM, FIG. 2B): more cellular uptake; Cellular uptake seen in fluorescence microscopy images [2]: Obvious cellular uptake
CC(=O)N[C@@H](Cc1ccc(O)cc1)C(=O)NCC(=O)N[C@@H](CCCCNC(=N)N)C(=O)N[C@@H](CCCCN)C(=O)N[C@@H](CCCCN)C(=O)N[C@@H](CCCCNC(=N)N)C(=O)N[C@@H](CCCCNC(=N)N)C(=O)N[C@@H](CCC(N)=O)C(=O)N[C@@H](CCCCNC(=N)N)C(=O)N[C@@H](CCCCNC(=N)N)C(=O)N[C@@H](CCCCNC(=N)N)C(N)=O [AghTat, Ac-Tyr-Gly-Agh-Lys-Lys-Agh-Agh-Gln-Agh-Agh-Agh-NH2]	–	–	–	–	–	–	–	Cytotoxicity (cell survival) [3]: minimal cytotoxicity
6CF-βAla-Tyr-Gly-Arg-Lys-Lys-Arg-Cit-Gln-Arg-Arg-Arg-NH2 [6CF-Tat-Cit53]	429 ± 19	3417 ± 288	6499 ± 109	10861 ± 1096	significant cellular uptake	–	–	–
Ac-Tyr-Gly-Arg-Lys-Lys-Arg-Arg-Gln-Arg-Arg-Cit-NH2 [Tat-Cit57]	–	–	–	–	–	49 ± 6	146 ± 30	–
Ac-Tyr-Gly-Arg-Lys-Lys-Arg-Arg-Gln-Arg-Arg-Agp-NH2 [Ac-Agp57-Tat-NH2]	–	–	–	–	–	–	–	Kd ([5]; in the presence of 10 μg/mL poly(dI-dC), FIG. 9, read-out: KD of peptide and TAR-RNA by gel shift assay): 56 ± 12 nM
6CF-βAla-Tyr-Gly-Cit-Lys-Lys-Arg-Arg-Gln-Arg-Arg-Arg-NH2 [6CF-Tat-Cit49]	1791 ± 555	6452 ± 740	13284 ± 1441	15784 ± 1567	significant cellular uptake	–	–	–
Ac-Tyr-Gly-Arg-Lys-Lys-Arg-Cit-Gln-Arg-Arg-Arg-NH2 [Tat-Cit53]	–	–	–	–	–	102 ± 11	344 ± 73	–
6CF-βAla-Tyr-Gly-Arg-Lys-Lys-Cit-Arg-Gln-Arg-Arg-Arg-NH2 [6CF-Tat-Cit52]	1221 ± 116	5332 ± 612	10040 ± 726	12378 ± 972	significant cellular uptake	–	–	–
6CF-βAla-Tyr-Gly-Arg-Lys-Lys-Arg-Arg-Gln-Cit-Arg-Arg-NH2 [6CF-Tat-Cit55]	793 ± 267	5750 ± 134	9090 ± 707	10152 ± 787	significant cellular uptake	–	–	–
6CF-βAla-Tyr-Gly-Arg-Lys-Lys-Arg-Arg-Gln-Arg-Arg-Cit-NH2 [6CF-Tat-Cit57]	465 ± 72	1696 ± 167	4031 ± 377	4964 ± 811	significant cellular uptake	–	–	–
Ac-Tyr-Gly-Arg-Lys-Lys-Arg-Arg-Gln-Arg-Cit-Arg-NH2 [Tat-Cit56]	–	–	–	–	–	55 ± 9	164 ± 40	–
6CF-βAla-Tyr-Gly-Arg-Lys-Lys-Arg-Arg-Gln-Arg-Cit-Arg-NH2 [6CF-Tat-Cit56]	429 ± 95	2305 ± 249	6094 ± 792	11617 ± 1339	significant cellular uptake	–	–	–
6-carboxyfluorescein-βAla-Tyr-Gly-Agb-Lys-Lys-Agb-Agb-Gln-Agb-Agb-Agb-NH2 [Flu-AgbTat]	–	–	–	–	–	–	–	Uptake into cells compared to Flu-ArgTat and Flu-AghTat ([1]; 7 μM peptide, 15 minutes, 37° C., fetal bovine serum, FIG. 2A): 3 times; Cellular uptake seen in fluorescence microscopy images [2]: Obvious cellular uptake
Ac-Tyr-Gly-Cit-Lys-Lys-Arg-Arg-Gln-Arg-Arg-Arg-NH2 [Tat-Cit49]	–	–	–	–	–	94 ± 13	138 ± 21	–
Ac-Tyr-Gly-Arg-Lys-Lys-Arg-Arg-Gln-Cit-Arg-Arg-NH2 [Tat-Cit55]	–	–	–	–	–	99 ± 14	279 ± 74	–
6-carboxyfluorescein-βAla-Tyr-Gly-Arg-Lys-Lys-Arg-Arg-Gln-Arg-Arg-Arg-NH2 [Flu-ArgTat, reference compound]	2170 ± 1692	5258 ± 2006	7042 ± 1475	8628 ± 3585	–	–	–	Cellular uptake seen in fluorescence microscopy images [2]: Obvious cellular uptake
Ac-Tyr-Gly-Arg-Lys-Lys-Cit-Arg-Gln-Arg-Arg-Arg-NH2 [Tat-Cit52]	–	–	–	–	–	116 ± 17	235 ± 45	–

Source: patent US8524659B2, “RNA virus-derived peptides with modified side chains” (National Taiwan University, priority 2011, dated 2013)
